US9284320B2, “Ticagrelor adducts with divalent metal salts” (Lek Pharmaceuticals d.d., priority 2012, dated 2016)

Columns and labels:
[1] = Hygroscopicity observed on isolation of the adduct; type: physicochemical; details: on air, after filtration under nitrogen
Protocol: To a solution of TCG (0.30 g) in dry MeCN (4 mL) at 60° C. MgCl2 (60 mg) was added in one portion, and the resulting reaction mixture was stirred at 60° C. for 16 h.
To a solution of TCG (0.20 g) in dry MeCN (5 mL) at 50° C. MgBr2 (74 mg) was added in one portion, and the resulting reaction mixture was stirred at 50° C. for 15 min.

[2] = general statement in the description; cited from earlier work
[3] = Physical stability at room temperature (DSC), adduct compared to amorphous TCG; type: physicochemical
Protocol: The so obtained Ia was left at room temperature in a closed vial to test physical stability. DSC analysis was performed after 21 days (FIG. 2) and after 31 days (FIG. 3).
DSC analysis of a sample was performed immediately (FIG. 4). Another sample of the so obtained Ia was left at room temperature to test physical stability.
TCG (0.52 g) was dissolved in 55 mL of aqueous ethanol (50 vol %) with the aid of ultrasonic irradiation. To the solution 33 mL water was poured at once and the obtained turbid mixture was frozen immediately in liquid nitrogen. The material was then lyophilized for 72 h at ˜0.8 mbar. DSC analysis of a sample was performed immediately (FIG. 6). Another sample of the so obtained amorphous TCG was left at room temperature to test physical stability.
Conditions for obtaining DSC thermograms: Thermograms were obtained with Mettler Toledo DSC822e differential scanning calorimeter. The sample (1-10 mg) was placed in an unsealed aluminium pan with a hole and heated at 10° C./min in the temperature range from 30° C. to 250° C.

Q: Which hygroscopicity [1] does the source give for `CCCSc1nc(N[C@@H]2C[C@H]2c2ccc(F)c(F)c2)c2nnn([C@@H]3C[C@H](OCCO)[C@@H](O)[C@H]3O)c2n1` [Ib] here?
A: The hygroscopicity was “hygroscopic on air”.

Q: Which solubility in water [2] does the source give for `CCCSc1nc(N[C@@H]2C[C@H]2c2ccc(F)c(F)c2)c2nnn([C@@H]3C[C@H](OCCO)[C@@H](O)[C@H]3O)c2n1` [Ticagrelor, 3-[7-[[(1R,2S)-2-(3,4-difluorophenyl)cyclopropyl]amino]-5-(propylthio)-3H-1,2,3-triazolo[4,5-d]pyrimidin-3-yl]-5-(2-hydroxyethoxy)-(1S,2S,3R,5S)-1,2-cyclopentanediol] here?
A: The solubility in water was “low solubility in water”.

Q: Which “chemical and physical stability (conversion of amorphous state to crystalline form)” value [3] does the source give for `CCCSc1nc(N[C@@H]2C[C@H]2c2ccc(F)c(F)c2)c2nnn([C@@H]3C[C@H](OCCO)[C@@H](O)[C@H]3O)c2n1` [amorphous basic ticagrelor] here?
A: The value was “quickly converts to the more stable crystalline forms”.
